Measured values published in patent US11014904B2, “1,2,4-triazine-3-amine derivative, preparation method therefor, and use thereof in medicine” (Jiangsu Hengrui Medicine Co., Ltd., priority 2017, dated 2021).

Columns and labels:
[1] = Pharmacokinetics assay in mice; format: in vivo; settings: mouse, po, C57 mice (female), intragastric, 2 mg/kg, plasma; for Vd/F: read-out: Apparent distribution volume Vz/F; for AUC: read-out: Area under curve AUC; for CL/F: read-out: Clearance CLz/F; for half-life: read-out: Half-life T½ (converted); for Cmax: read-out: Plasma concentration Cmax; for MRT: read-out: Residence time MRT
Method: Mice were used as test animals. The drug concentration in plasma at different time points was determined by LC/MS/MS method after intragastrical administration of the compounds of Examples 2, 3, 17, 18, 19, 20, 31 and 44 to mice. The pharmacokinetic behavior of the compounds of the present invention was studied and evaluated in mice.
Seventy-two C57 mice (female) were purchased from Shanghai Jiesijie Laboratory Animal Co., LTD, with Certificate No.: SCXK (Shanghai) 2013-0006, and equally divided into 8 groups (9 mice per group).
A certain amount of the test compound was weighed, and added with 5% by volume of DMSO, 5% by volume of tween 80 and 90% by volume of normal saline to prepare a 0.1 mg/mL colorless, clear and transparent solution.
After an overnight fast, C57 mice were administered intragastrically the test compounds at an administration dosage of 2.0 mg/kg and an administration volume of 0.2 mL/10 g.
The mice were intragastrically administered the compounds of Examples 2, 3, 17, 18, 19, 20, 31 and 44. 0.1 ml of blood was taken before administration and at 0.5, 1.0, 2.0, 4.0, 6.0, 8.0, 11.0 and 24.0 hours after administration. The samples were stored in heparinized tubes, and centrifuged for 10 minutes at 3,500 rpm to separate the blood plasma. The plasma samples were stored at −20° C.
The content of the test compounds in the plasma of mice after intragastrical administration of the test compounds at different concentrations was determined: 25 μL of mouse plasma at each time after administration were taken, added with 50 μL of the internal standard solution of camptothecin (100 ng/mL) and 200 μL of acetonitrile, vortex-mixed for 5 minutes, and centrifuged for 10 minutes (4000 rpm). 5 μL of the supernatant were taken from the plasma samples for LC/MS/MS analysis.

[2] = molecular target: T1, adenosine A1 receptor (A1R) (Homo sapiens, UniProt P30542); assay: Inhibition of the adenosine A1 receptor cAMP signaling pathway in CHO-K1/A1R cells (HTRF); format: cell-based; settings: for IC50: CHO-K1/A1R cells, cAMP, forskolin 10 μM, CPA 10 nM; for IC50 ratio (A1R/A2aR): selectivity A1R over A2aR
T1 construct: expressed in transfected cells; host or cells: CHO-K1
T1 sequence (P30542 1-326): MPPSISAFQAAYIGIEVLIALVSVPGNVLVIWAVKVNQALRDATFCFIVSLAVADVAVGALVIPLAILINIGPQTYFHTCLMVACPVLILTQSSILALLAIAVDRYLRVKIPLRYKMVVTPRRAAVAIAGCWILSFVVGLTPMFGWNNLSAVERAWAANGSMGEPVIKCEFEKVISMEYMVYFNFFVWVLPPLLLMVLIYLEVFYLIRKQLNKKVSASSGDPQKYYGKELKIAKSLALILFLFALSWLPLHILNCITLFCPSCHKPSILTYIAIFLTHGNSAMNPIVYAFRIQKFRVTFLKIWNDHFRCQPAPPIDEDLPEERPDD
Text: Determination of the inhibition activity of the compounds of the present invention on the adenosine A2a receptor (A2aR) cAMP signaling pathway, the adenosine A2b receptor (A2bR) cAMP signaling pathway, the adenosine A1 receptor (A1R) cAMP signaling pathway and the adenosine A3 receptor (A3R) cAMP signaling pathway.
The inhibition activity of the compounds of the present invention on the adenosine A2a receptor (A2aR) cAMP signaling pathway, the adenosine A2b receptor cAMP signaling pathway, the adenosine A1 receptor cAMP signaling pathway and the adenosine A3 receptor cAMP signaling pathway was determined by the following method. The experimental method is briefly described as follows:
2.3 Adenosine A1 Receptor
CHO-K1/A1R cells were cultured in DMEM/F12 medium containing 10% fetal bovine serum and 1 mg/ml G418. The cells were digested with the cell separation buffer during the experiment. The cells were then resuspended in the balanced salt buffer containing 20 mM HEPES and 0.1% bovine serum albumin and counted, and the cell density was adjusted to 5×10^5 cells/ml. In the 384-well plate, each well was added with 12.5 μl of cell suspension, and 6.25 μl of test compound (4× concentration) formulated with the balanced salt buffer containing 20 mM HEPES, 0.1% bovine serum albumin, 54 μM rolipram and 2.7 U/ml adenosine deaminase, and the plate was incubated at room temperature for 30 minutes. Each well was then added with 6.25 μl of forskolin and N6-cyclopentyladenosine (4× concentration) formulated with the balanced salt buffer containing 20 mM HEPES, 0.1% bovine serum albumin, 54 μM rolipram and 2.7 U/ml adenosine deaminase, and the plate was incubated at room temperature for 30 minutes. The final concentrations of the compounds were: 100000, 10000, 1000, 100, 10, 1, 0.1 and 0 nM. The final concentrations of forskolin was 10 μM. The final concentrations of CPA was 10 nM. Intracellular cAMP concentration was detected with the cAMP dynamic 2 kit. cAMP-d2 and Anti-cAMP-Eu-Cryptate were diluted respectively with the cAMP lysis buffer at a ratio of 1:4. Each well was added with 12.5 μl of diluted cAMP-d2, followed by addition of 12.5 μl of diluted Anti-cAMP-Eu-Cryptate, and the plate was incubated at room temperature in the dark for 1 hour. The HTRF signal values were read by the PHERAstar multi-function microplate reader.

Structure (SMILES)	Vd/F [1] [L/kg]	AUC [1] [ng·h/mL]	CL/F [1] [mL/min/kg]	half-life [1] [h]	Cmax [1] [ng/mL]	MRT [1] [h]	IC50 [2] [nM]	IC50 ratio (A1R/A2aR) [2]
Cc1ccnc2ccc(-c3nnc(N)nc3-c3ccccc3F)cc12 [Example 17, 5-(2-Fluorophenyl)-6-(4-methylquinolin-6-yl)-1,2,4-triazin-3-amine]	15.3	204	162	1.09	265	1.17	1350	2698
Cc1ncnc2ccc(-c3nnc(N)nc3-c3ccc(F)cc3)cc12 [Example 19, 5-(4-Fluorophenyl)-6-(4-methylquinazolin-6-yl)-1,2,4-triazin-3-amine]	1.57	5030	6.61	2.74	1960	3.13	1420	3557
Cc1ccnc2c(F)cc(-c3nnc(N)nc3-c3ccccc3F)cc12 [Example 31, 6-(8-Fluoro-4-methylquinolin-6-yl)-5-(2-fluorophenyl)-1,2,4-triazin-3-amine]	16.7	339	95	2.02	302	2.02	1640	431
CCc1ccnc2ccc(-c3nnc(N)nc3-c3ccc(F)cc3)cc12 [Example 44, 6-(4-Ethylquinolin-6-yl)-5-(4-fluorophenyl)-1,2,4-triazin-3-amine]	4.79	501	65	0.85	720	0.85	646	807
Cc1ncnc2c(F)cc(-c3nnc(N)nc3-c3ccccc3)cc12 [Example 45, 6-(8-Fluoro-4-methylquinazolin-6-yl)-5-phenyl-1,2,4-triazin-3-amine]	–	–	–	–	–	–	930	775
[2H]C([2H])([2H])c1ncnc2ccc(-c3nnc(N)nc3-c3ccc(F)cc3)cc12 [Example 52, 5-(4-Fluorophenyl)-6-(4-(methyl-d3)quinazolin-6-yl)-1,2,4-triazin-3-amine]	–	–	–	–	–	–	876	973

Stronger by IC50 [2], values ahead:

Vd/F [1] [L/kg]	AUC [1] [ng·h/mL]	CL/F [1] [mL/min/kg]	half-life [1] [h]	Cmax [1] [ng/mL]	MRT [1] [h]	IC50 [2] [nM]	IC50 ratio (A1R/A2aR) [2]	Structure (SMILES)
14.7	412	78.3	2.17	441	1.79	133	221	Nc1nnc(-c2cc(F)c3ncccc3c2)c(-c2ccccc2)n1 [Example 2, 6-(8-Fluoroquinolin-6-yl)-5-phenyl-1,2,4-triazin-3-amine]
15.7	419	78.6	2.3	395	1.61	97	139	Nc1nnc(-c2ccc3ncccc3c2)c(-c2ccccc2)n1 [Example 3, 5-Phenyl-6-(quinolin-6-yl)-1,2,4-triazin-3-amine]
–	–	–	–	–	–	248	2484	Cc1ncnc2ccc(-c3nnc(N)nc3-c3ccccc3)cc12 [Example 15, 6-(4-Methylquinazolin-6-yl)-5-phenyl-1,2,4-triazin-3-amine]
–	–	–	–	–	–	161	803	Cc1ccnc2c(F)cc(-c3nnc(N)nc3-c3ccccc3)cc12 [Example 16, 6-(8-Fluoro-4-methylquinolin-6-yl)-5-phenyl-1,2,4-triazin-3-amine]
9.01	495	65	1.59	402	1.43	190	948	Cc1ccnc2ccc(-c3nnc(N)nc3-c3ccc(F)cc3)cc12 [Example 18, 5-(4-Fluorophenyl)-6-(4-methylquinolin-6-yl)-1,2,4-triazin-3-amine]
3.05	1170	28	1.24	866	1.41	617	411	Cc1ccnc2c(F)cc(-c3nnc(N)nc3-c3ccc(F)cc3)cc12 [Example 20, 6-(8-Fluoro-4-methylquinolin-6-yl)-5-(4-fluorophenyl)-1,2,4-triazin-3-amine]
–	–	–	–	–	–	100	334	[2H]C([2H])([2H])c1ccnc2ccc(-c3nnc(N)nc3-c3ccc(F)cc3)cc12 [Example 22, 5-(4-Fluorophenyl)-6-[4-(trideuteromethyl)-6-quinolinyl]-1,2,4-triazin-3-amine]
